# Test results: patent US10004732B2 (Novartis AG, priority 2014, dated 2018)
# How the values were obtained:
# [1] = test system: IL-8-induced neutrophil shape change in human whole blood; assay: Whole blood neutrophil shape change assay (L); format: cell-based; settings: Homo sapiens, Neutrophil, IL-8, human whole blood, read-out: Assay L WBSC IC50
# PI 3-kinase alpha [2] = biological target: T1, PI 3-kinase alpha (Homo sapiens, UniProt P42336); assay: Kinase Glo Luminescent Kinase Assay (Kglo), assay A; format: biochemical; settings: read-out: Assay A PI3Kα IC50
# Target sequence in this assay (P42336 whole entry): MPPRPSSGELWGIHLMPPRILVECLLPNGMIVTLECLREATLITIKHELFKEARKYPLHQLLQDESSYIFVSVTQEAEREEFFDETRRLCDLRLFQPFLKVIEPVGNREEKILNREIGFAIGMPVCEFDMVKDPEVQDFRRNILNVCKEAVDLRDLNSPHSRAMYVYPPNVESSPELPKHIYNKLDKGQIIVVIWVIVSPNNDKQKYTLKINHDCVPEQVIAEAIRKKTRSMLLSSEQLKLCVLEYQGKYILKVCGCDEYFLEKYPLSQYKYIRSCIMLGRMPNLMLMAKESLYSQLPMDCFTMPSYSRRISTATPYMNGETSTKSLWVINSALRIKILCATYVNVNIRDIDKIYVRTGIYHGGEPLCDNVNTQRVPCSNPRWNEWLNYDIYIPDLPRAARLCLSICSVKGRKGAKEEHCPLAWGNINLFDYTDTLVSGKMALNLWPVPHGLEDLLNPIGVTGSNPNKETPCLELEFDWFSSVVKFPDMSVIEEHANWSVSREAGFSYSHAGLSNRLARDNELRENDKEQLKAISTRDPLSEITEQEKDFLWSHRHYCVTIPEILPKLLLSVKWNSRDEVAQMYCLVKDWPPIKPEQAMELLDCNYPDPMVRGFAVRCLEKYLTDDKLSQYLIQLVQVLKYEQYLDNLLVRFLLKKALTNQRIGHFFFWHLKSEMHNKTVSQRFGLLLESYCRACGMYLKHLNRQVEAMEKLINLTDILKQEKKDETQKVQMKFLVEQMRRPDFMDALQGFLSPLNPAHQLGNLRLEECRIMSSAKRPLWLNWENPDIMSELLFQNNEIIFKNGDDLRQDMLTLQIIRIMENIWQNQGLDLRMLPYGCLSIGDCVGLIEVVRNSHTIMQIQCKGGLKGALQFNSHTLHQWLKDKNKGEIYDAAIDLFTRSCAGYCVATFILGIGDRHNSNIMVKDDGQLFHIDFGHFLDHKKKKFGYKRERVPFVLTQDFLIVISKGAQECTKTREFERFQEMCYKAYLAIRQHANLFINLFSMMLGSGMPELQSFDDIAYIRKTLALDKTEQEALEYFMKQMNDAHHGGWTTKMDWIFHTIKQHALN
# PI 3-kinase gamma [3] = biological target: T2, PI 3-kinase gamma (Homo sapiens, UniProt P48736); assay: TR-FRET Adapta assay, assay E; format: biochemical; settings: read-out: Assay E PI3Kγ IC50
# PI 3-kinase gamma [4] = biological target: T2, PI 3-kinase gamma; assay: Cellular U937 AKT assay K1 (MSD); format: cell-based; settings: U937 cells, K1 format; read-out: Assay K1 PI3Kγ IC50
# PI 4-kinase beta = PI 4-kinase beta (Homo sapiens, UniProt Q9UBF8); assay: Kinase Glo Luminescent Kinase Assay (Kglo), assay D; format: biochemical; settings: read-out: Assay D PI4Kβ IC50
# PI 4-kinase beta, sequence (Q9UBF8 whole entry): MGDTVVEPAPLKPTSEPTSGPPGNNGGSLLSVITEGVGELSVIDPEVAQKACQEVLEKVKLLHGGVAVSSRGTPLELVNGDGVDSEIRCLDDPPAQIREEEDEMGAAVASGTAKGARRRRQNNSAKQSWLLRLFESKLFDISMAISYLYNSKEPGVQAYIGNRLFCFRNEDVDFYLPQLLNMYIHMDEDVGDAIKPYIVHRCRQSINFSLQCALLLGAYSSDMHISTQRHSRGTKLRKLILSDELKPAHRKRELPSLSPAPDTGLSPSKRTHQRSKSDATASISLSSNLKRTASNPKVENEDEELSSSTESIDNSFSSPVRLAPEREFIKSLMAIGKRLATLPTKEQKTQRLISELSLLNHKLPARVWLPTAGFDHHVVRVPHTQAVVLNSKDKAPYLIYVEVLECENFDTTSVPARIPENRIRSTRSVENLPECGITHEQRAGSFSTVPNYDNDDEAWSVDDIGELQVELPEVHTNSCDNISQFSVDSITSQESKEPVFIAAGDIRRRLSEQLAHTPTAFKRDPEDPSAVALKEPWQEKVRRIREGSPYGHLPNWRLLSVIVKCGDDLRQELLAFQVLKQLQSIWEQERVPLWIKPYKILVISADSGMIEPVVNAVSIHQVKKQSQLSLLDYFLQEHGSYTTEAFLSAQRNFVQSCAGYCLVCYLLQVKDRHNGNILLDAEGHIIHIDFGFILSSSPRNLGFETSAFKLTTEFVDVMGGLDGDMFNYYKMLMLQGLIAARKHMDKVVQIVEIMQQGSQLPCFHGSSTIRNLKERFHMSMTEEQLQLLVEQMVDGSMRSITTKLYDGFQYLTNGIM
# PI 3-kinase delta [5] = biological target: T3, PI 3-kinase delta (Homo sapiens, UniProt O00329); assay: Cellular assay J1, p-Akt (S473) in Rat-1 cells, Surefire format; format: cell-based; settings: non-asterisked data: version J1 (Surefire format), Rat-1 cells; read-out: Assay J PI3Kδ IC50
# Vps34 = Vps34 (Homo sapiens, UniProt Q8NEB9); assay: Kinase Glo Luminescent Kinase Assay (Kglo), assay C; format: biochemical; settings: read-out: Assay C VPS34 IC50
# Vps34, sequence (Q8NEB9 whole entry, species assumed): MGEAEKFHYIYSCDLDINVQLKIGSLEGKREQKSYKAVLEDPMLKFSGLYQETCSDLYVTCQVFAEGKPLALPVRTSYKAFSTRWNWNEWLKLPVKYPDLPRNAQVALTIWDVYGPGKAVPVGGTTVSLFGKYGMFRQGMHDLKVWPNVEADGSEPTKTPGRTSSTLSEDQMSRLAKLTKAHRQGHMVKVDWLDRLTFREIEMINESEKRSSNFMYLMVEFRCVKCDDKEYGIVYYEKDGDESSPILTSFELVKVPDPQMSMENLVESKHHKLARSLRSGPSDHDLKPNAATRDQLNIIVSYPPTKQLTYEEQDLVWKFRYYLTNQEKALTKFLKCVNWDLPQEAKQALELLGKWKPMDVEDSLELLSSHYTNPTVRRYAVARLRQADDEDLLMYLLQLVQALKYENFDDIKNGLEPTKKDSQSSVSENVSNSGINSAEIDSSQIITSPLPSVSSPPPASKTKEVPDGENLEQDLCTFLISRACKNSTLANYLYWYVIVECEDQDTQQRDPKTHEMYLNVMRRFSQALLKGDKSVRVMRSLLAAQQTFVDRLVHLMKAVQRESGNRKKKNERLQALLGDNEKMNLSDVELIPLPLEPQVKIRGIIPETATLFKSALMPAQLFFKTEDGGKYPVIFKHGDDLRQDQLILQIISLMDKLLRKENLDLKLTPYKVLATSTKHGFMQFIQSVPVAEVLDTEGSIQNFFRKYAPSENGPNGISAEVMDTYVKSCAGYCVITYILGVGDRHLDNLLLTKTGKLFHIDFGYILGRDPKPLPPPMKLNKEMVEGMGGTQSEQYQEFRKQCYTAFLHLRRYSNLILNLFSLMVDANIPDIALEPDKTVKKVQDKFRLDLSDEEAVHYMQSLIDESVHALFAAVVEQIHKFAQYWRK
# PI 3-kinase beta [6] = biological target: T4, PI 3-kinase beta (Homo sapiens, UniProt P42338); assay: Cellular assay I1, p-Akt (S473) in Rat-1 cells, Surefire format; format: cell-based; settings: non-asterisked data: version I1 (Surefire format), Rat-1 cells; read-out: Assay I PI3Kβ IC50
# Target sequence in this assay (P42338 whole entry): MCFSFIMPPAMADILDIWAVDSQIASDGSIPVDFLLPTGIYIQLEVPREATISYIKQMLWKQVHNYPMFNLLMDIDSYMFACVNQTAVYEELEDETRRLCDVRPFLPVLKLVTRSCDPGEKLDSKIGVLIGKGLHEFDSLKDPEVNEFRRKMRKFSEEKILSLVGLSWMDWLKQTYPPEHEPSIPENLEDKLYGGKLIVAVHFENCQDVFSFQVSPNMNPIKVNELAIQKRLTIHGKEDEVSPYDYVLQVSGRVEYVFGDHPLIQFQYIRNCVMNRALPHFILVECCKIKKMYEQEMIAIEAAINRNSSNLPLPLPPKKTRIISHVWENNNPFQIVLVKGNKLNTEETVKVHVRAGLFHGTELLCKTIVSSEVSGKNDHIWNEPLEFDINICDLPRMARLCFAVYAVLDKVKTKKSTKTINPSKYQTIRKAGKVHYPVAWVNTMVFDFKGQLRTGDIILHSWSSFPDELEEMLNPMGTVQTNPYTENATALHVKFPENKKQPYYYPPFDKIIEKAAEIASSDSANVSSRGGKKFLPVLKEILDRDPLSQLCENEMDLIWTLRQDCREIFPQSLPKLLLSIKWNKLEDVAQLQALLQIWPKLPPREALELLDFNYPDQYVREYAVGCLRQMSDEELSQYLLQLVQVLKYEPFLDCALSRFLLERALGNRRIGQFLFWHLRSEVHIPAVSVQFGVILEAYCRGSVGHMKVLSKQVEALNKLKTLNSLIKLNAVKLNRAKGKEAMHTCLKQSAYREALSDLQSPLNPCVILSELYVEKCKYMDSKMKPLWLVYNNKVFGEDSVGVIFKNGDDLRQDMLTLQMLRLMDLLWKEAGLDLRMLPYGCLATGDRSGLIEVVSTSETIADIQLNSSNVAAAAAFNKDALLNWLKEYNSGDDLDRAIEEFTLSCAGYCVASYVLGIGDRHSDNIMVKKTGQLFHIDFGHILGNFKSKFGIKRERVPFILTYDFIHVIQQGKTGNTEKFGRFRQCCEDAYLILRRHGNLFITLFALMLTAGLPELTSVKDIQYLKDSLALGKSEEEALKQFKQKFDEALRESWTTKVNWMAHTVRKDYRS
# Target sequence in this assay (Q63787 whole entry partner): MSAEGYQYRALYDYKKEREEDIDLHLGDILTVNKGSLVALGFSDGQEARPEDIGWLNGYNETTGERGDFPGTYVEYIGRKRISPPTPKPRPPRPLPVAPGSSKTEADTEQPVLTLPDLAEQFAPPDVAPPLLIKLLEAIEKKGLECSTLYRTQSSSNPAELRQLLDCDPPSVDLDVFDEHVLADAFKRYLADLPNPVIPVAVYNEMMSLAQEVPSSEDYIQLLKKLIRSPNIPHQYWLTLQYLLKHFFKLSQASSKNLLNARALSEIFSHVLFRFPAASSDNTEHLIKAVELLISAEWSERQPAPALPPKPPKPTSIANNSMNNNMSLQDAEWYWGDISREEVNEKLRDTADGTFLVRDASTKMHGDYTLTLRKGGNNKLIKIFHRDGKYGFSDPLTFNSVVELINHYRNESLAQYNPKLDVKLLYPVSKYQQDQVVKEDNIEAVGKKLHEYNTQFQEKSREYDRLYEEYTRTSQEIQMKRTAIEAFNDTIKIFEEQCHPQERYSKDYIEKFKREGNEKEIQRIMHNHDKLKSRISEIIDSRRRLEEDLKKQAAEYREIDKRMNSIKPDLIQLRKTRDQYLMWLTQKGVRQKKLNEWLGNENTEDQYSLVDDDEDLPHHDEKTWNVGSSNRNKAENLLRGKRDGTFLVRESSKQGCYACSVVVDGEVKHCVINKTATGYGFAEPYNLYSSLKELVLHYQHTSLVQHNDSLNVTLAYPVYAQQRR
# PI 3-kinase alpha [7] = biological target: T1, PI 3-kinase alpha; assay: Cellular assay H1, p-Akt (S473) in Rat-1 cells, Surefire format; format: cell-based; settings: non-asterisked data: version H1 (Surefire format), Rat-1 cells; read-out: Assay H PI3Kα IC50
# Target sequence in this assay (P42336 whole entry): as the sequence (P42336 whole entry) above
# Target sequence in this assay (Q63787 whole entry partner): as the sequence (Q63787 whole entry partner) above
# [8] = Microsomal clearance assay (M); settings: intrinsic clearance in rat liver microsomes
# Procedure: The experiments were performed in 96-well glass plates at 37° C. on an automated Tecan EVO platform. Test compounds at a concentration of 10 mM in pure DMSO were diluted 1:1000 in water to 10 μM. […] Reactions were initiated by the addition of 150 μL of a cofactor solution containing 2 mM NADPH.
# mTOR = mTOR (Homo sapiens, UniProt P42345); assay: Lanthascreen kinase binding assay, assay G; settings: read-out: Assay G mTOR IC50
# Procedure: Lanthascreen™ Kinase Binding Assay for mTOR (G)
# Binding of an inhibitor to the kinase competes for binding with the tracer, resulting in a loss of FRET.
# 50 nL of compound dilutions were dispensed onto white 384-well small volume polystyrene plate.
# PI 3-kinase beta [9] = biological target: T4, PI 3-kinase beta; assay: Kinase Glo Luminescent Kinase Assay (Kglo), assay B; format: biochemical; settings: read-out: Assay B PI3Kβ IC50
# Target sequence in this assay (P42338 whole entry): as the sequence (P42338 whole entry) above
# Target sequence in this assay (P27986 461-568 partner): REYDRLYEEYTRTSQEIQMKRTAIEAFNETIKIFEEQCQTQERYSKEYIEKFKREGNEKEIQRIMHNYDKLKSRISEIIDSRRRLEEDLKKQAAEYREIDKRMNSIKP
# PI 3-kinase delta [10] = biological target: T3, PI 3-kinase delta; assay: TR-FRET Adapta assay, assay F; settings: read-out: Assay F PI3Kδ IC50
SMILES,IC50 [1] [nM],IC50 (PI 3-kinase alpha [2]) [nM],IC50 (PI 3-kinase gamma [3]) [nM],IC50 (PI 3-kinase gamma [4]) [nM],IC50 (PI 4-kinase beta) [nM],IC50 (PI 3-kinase delta [5]) [nM],IC50 (Vps34) [nM],IC50 (PI 3-kinase beta [6]) [nM],IC50 (PI 3-kinase alpha [7]) [nM],Assay M RLM CI(int) [8] [µL/min/mg],IC50 (mTOR) [nM],IC50 (PI 3-kinase beta [9]) [nM],IC50 (PI 3-kinase delta [10]) [nM]
"Cc1cc(F)c(S(=O)(=O)NCCCO)cc1-c1cnc(N)c(-c2cnn(C)c2)n1 [Example 114, 5-(5-Amino-6-(1-methyl-1H-pyrazol-4-yl)pyrazin-2-yl)-2-fluoro-N-(3-hydroxypropyl)-4-methylbenzenesulfonamide]",499,290,44,177,5900,7990,7830,> 3000,5430,17,> 9100,3700,1190
"Cc1cc(F)c(S(=O)(=O)NCCC(C)(C)O)cc1-c1cnc(N)c(-c2cnn(C)c2)n1 [Example 115, 5-(5-Amino-6-(1-methyl-1H-pyrazol-4-yl)pyrazin-2-yl)-2-fluoro-N-(3-hydroxy-3-methylbutyl)-4-methylbenzenesulfonamide]",1110,320,39,117,5640,2210,8990,3530,2980,38,8640,2350,480
"Cc1ncc(-c2nc(-c3cc(S(=O)(=O)N4CCNC(C(F)(F)F)C4)ccc3C)cnc2N)s1 (centres unmarked) [Example 118, 5-(2-Methyl-5-(3-(trifluoromethyl)piperazin-1-ylsulfonyl)phenyl)-3-(2-methylthiazol-5-yl)pyrazin-2-amine]",898,30,11,102,4720,530,1460,1590,630,264,460,470,130
COc1ccncc1-c1nc(-c2cc(S(=O)(=O)NCCC(C)(C)O)ccc2C)cnc1N [Example 119.2],2180,450,50,333,> 9100,2380,> 9100,4070,2740,101,> 9100,> 9100,250
Cc1ccc(S(=O)(=O)NCCC(C)(C)O)cc1-c1cnc(N)c(-c2cnn(C)c2)n1 [Example 119.16],1240,390,22,81,6610,2350,6230,3700,4010,21,> 9100,3790,190
Cc1ccc(S(=O)(=O)NCCC(C)(C)O)cc1-c1cnc(N)c(-c2ccncc2)n1 [Example 119.27],726,170,35,128,5750,910,> 9100,9240,470,87,4780,4970,120
Cc1cc(-c2nc(-c3cc(S(=O)(=O)NCCC(C)(C)O)ccc3C)cnc2N)ccn1 [Example 119.28],963,230,49,179,4410,2150,> 9100,> 10000,1250,44,6000,7380,190
Cc1ccc(S(=O)(=O)NCCC(C)(C)O)cc1-c1cnc(N)c(-c2cnn(C(C)C)c2)n1 [Example 119.31],1660,160,7,46,3740,1240,> 9100,6990,2830,79,2230,7850,110
